Assay results taken from patent publication US20040030106A1, “Novel compounds and process” (priority 2000, published 2004).
Several values for one entry are separate records, joined by “and”; a condition that tells them apart may be missing. Equal values may be shown once. Bridge positions count the residues as written; N and C are the ends. Ends that are not written are not given here.

Key:
P14 peptides = assay: IgG anti-peptide ELISA after immunisation of mice with P14 peptide-BSA conjugates; format: in vivo; details: 25 μg conjugate IM with AS2 adjuvant on days 0, 14, 28, day 14 post III; for IgG anti-peptide responses (midpoint titre), individual mice: one value per mouse
Procedure: To evaluate the immunogenicity of the conjugates produced in Example 1, 10 mice per group were immunised intramuscularly (IM) on days 0, 14 and 28 with 25 μg of conjugate mixed with AS2 adjuvant (oil/water emulsion, 3D-MPL, QS21). The serologic response for the P14 peptides was analysed by ELISA on days 28 and 42 (14 post III).

P15 peptides = assay: Anti-peptide antibody response after immunisation of mice with cyclic P15-BSA conjugates; format: in vivo; details: 10 mice per group, 25 μg conjugate IM with AS2 adjuvant on days 0, 14, 28; 14 days post III
Procedure: (§1) The P15 peptide conjugates produced in Example 1 were also used to immunise 10 mice per group,intramuscularly (IM) on days 0, 14 and 28 with 25 μg of conjugate mixed with AS2 adjuvant (oil/water emulsion, 3D-MPL, QS21). Very homogenous responses were obtained with all cyclic P15 peptides.

human basophils [1] = tested on: human basophils
Procedure: Blood was collected by venepuncture from 4 allergic donors into tubes containing 0.1 volumes 2.7% EDTA, pH 7.0. It is then diluted 1/2 with an equal volume of HBH medium containing 0.1% human serum albumin (HBH/HSA). The resulting cell suspension was layered over 50% volume Ficoll-Paque and centrifuged at 400 g for 30 minutes at room temperature. The peripheral blood mononuclear cell (PBMC) layer at the interface is collected and the pellet is discarded. The cells are washed once in HBH/HSA, counted, and re-suspended in HBH/HSA at a cell density of 2.0×10^6 per ml. 100 μl cell suspension are added to wells of a V-bottom 96-well plate containing 100 μl diluted test sample or vaccine induced antibody. Each test sample is tested at a range of dilutions with 6 wells for each dilution. Well contents are mixed briefly using a plate shaker, before incubation at 37° C. for 30 minutes with shaking at 120 rpm.
For each serum dilution 3 wells are triggered by addition of 10 μl Lol p I extract (final dilution 1/10000) and 3 wells have 10 μl HBH/HSA added for assessment of anaphylactogenicity. Well contents are again mixed briefly using a plate shaker, before incubation at 37° C. for a further 30 minutes with shaking at 120 rpm. Incubations are terminated by centrifugation at 500 g for 5 min. Supernatants are removed for histamine assay using a commercially available histamine EIA measuring kit (Immunotech). Control wells containing cells without test sample are routinely included to determine spontaneous and triggered release. Wells containing cells ±0.05% Igepal detergent are also included to determine total cell histarnine.
Histamine release due to test samples=% histamine release from test sample treated cells−% spontaneous histamine release.

IgE = assay: Anti-IgE antibody response after immunisation of mice with cyclic P15-BSA conjugates, by comparison with mAb 11; format: in vivo; details: mAb11 equivalents, 25 μg conjugate IM with AS2 adjuvant on days 0, 14, 28, 14 days post III
Procedure: as §1

human basophils [2] = assay: Human basophil blocking assay: inhibition of Lol p I triggered histamine release; format: cell-based; details: human basophils from allergic donors, triggered with allergen (Lol p I)
From the text: The degree of inhibition of histamine release can be calculated using the formula:
% inhibition=1−(histamine release from test sample treated cells*)×100(histamine release from antigen stimulated cells*)
Values corrected for spontaneous release.

| Substance | IgG anti-peptide responses (midpoint titre), Average (P14 peptides) | IgG anti-peptide responses (midpoint titre), geomean (P14 peptides) | IgG anti-peptide responses (midpoint titre), individual mice (P14 peptides) | anti-peptide (midpoint titre), average (P15 peptides) | anti-peptide (midpoint titre), geomean (P15 peptides) | anaphylactogenicity of the induced antiserum (human basophils [1]) | anti-IgE (μg/ml or mAB11 equivalent), average (IgE) [µg/mL] | anti-IgE (μg/ml or mAB11 equivalent), geomean (IgE) [µg/mL] | histamine release blocking activity of the induced antiserum (human basophils [2]) |
| --- | --- | --- | --- | --- | --- | --- | --- | --- | --- |
| Ac-CPEWPGSRDRCGSK-NH2 (disulfide 1-11 (inferred)) [P14f] | 77521 | 73541 | 67086 and 101502 and 36031 and 74838 and 56496 and 51304 and 92885 and 92868 and 113041 and 89155 | – | – | – | – | – | – |
| Ac-CLEDGQVMDVDLCPREAAEGDK-NH2 [P15d] | – | – | – | 35118 | 32801 | without the antiserum being anaphylactogenic | 174 | 111 | inhibited histamine release |
| Ac-CLEDGQVMDCGSK-NH2 (disulfide 1-10 (inferred)) [P15b, 325 conjugated to BSA] | – | – | – | 11169 | 8385 | – | 70 | 35 | – |
| Ac-CLEDGQVMDVDLCGGSSGGK-NH2 (disulfide 1-13 (inferred)) [P15e, 328 conjugated to BSA] | – | – | – | 57432 | 55207 | without the antiserum being anaphylactogenic | 129 | 113 | inhibited histamine release |
| Ac-CLEDGQVMDVDLCGSK-NH2 (disulfide 1-13 (inferred)) [P15c, 326 conjugated to BSA] | – | – | – | 66452 | 65685 | without the antiserum being anaphylactogenic | 200 | 189 | inhibited histamine release |
| Ac-CWPGSRDRRCGSK-NH2 (disulfide 1-10 (inferred)) [P14I] | 48146 | 45336 | 85882 and 28989 and 39268 and 39460 and 57276 and 50834 and 54664 and 62263 and 36621 and 26202 | – | – | – | – | – | – |
| ACPEWPGSRDRCTLAG-NH2 (disulfide 2-12 (inferred)) [P14e] | 3200 | 3051 | 3151 and 2345 and 3224 and 3051 and 2873 and 4647 and 1461 and 4227 and 3821 | – | – | – | – | – | – |
